# “Also recorded” adds a separate entry of the source. Like-named read-outs stand apart in the source and are kept apart here.
# What was measured:
# [1] = molecular target: IGF Type I receptor (IGFR) (Homo sapiens, UniProt P08069); assay: Competitive receptor-binding assay, epitope-tagged IGF Type I receptor
# Method: (§1) Relative activity may be defined by comparison of the dissociation constants (Keq) governing the hormone-receptor binding reaction.
# (§2) Receptor-Binding Assays. […] This assay employs the purified epitope-tagged receptor (IR-A, IR-B, or IGFR) using a microtiter-plate antibody-capture assay as known in the art. The epitope tag consists of three tandem repeats of the FLAG epitope. Microtiter strip plates (Nunc Maxisorb) were incubated overnight at 4° C. with anti-FLAG IgG (100 μl/well of […] in phosphate-buffered saline). Binding data were analyzed by a single-site heterologous competition binding model. A corresponding microtiter plate antibody assay using the epitope-tagged IGF Type I receptor was employed to assess cross-binding of analogues to this homologous receptor.
# insulin receptor = insulin receptor (Homo sapiens, UniProt P06213); details: background; cited from earlier work
# [2] = molecular target: insulin receptor isoform B (IR-B, HIRB) (Homo sapiens, UniProt P06213); assay: Competitive receptor-binding assay, 125I-insulin tracer, epitope-tagged receptor antibody capture (IR-B); details: normalized to 100% = binding affinity of wild-type human insulin for IR-A
# Method: as §1, §2
# [3] = molecular target: insulin receptor isoform A (IR-A, HIRA) (Homo sapiens, UniProt P06213); assay: Competitive receptor-binding assay, 125I-insulin tracer, epitope-tagged receptor antibody capture (IR-A); details: ratio of IR-A to IR-B binding
# Method: as §1, §2
# Chain of IGF Type I receptor (IGFR) (P08069 31-736 limits assumed): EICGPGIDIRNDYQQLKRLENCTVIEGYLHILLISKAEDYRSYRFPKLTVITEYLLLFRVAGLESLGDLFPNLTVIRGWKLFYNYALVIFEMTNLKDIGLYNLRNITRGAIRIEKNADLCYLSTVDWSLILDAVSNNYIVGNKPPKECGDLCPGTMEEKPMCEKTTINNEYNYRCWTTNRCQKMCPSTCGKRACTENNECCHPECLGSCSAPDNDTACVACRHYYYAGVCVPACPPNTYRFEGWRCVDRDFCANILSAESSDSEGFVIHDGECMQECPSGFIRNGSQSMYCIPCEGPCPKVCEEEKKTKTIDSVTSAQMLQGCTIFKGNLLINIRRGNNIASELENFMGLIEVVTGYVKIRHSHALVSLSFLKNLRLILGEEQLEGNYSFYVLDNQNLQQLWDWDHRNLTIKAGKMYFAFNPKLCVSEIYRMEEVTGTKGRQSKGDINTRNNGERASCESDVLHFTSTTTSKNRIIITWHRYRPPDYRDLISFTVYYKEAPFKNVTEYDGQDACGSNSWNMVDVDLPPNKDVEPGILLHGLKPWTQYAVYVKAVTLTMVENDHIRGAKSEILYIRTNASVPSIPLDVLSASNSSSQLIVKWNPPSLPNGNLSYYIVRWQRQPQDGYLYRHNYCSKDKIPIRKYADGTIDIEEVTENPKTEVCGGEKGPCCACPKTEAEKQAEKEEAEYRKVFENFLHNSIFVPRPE
# Chain of IGF Type I receptor (IGFR) (P08069 741-1367 partner limits assumed): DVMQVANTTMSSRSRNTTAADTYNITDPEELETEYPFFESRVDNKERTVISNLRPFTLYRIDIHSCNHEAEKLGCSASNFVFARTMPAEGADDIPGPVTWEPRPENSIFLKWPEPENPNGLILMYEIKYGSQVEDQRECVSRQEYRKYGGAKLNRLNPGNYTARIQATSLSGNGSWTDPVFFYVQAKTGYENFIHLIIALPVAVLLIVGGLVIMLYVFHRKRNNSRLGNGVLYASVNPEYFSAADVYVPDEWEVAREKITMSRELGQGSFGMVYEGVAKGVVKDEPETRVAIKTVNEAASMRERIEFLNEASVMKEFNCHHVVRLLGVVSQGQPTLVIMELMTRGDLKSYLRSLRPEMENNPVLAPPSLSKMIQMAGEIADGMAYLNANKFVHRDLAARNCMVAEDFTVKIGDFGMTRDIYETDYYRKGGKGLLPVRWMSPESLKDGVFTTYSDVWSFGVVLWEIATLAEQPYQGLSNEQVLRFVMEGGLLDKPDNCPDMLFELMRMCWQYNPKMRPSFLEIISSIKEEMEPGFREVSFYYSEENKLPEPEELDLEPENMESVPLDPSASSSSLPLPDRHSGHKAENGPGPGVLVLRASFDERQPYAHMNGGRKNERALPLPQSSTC
compound,measurement,setting,value
"CC[C@H](C)[C@@H]1NC(=O)CNC(=O)[C@H](CCCNC(=N)N)NC(=O)[C@H](CCCNC(=N)N)NC(=O)[C@@H]2CCCN2C(=O)CNC(=O)CNC(=O)CNC(=O)[C@H]([C@@H](C)O)NC(=O)[C@@H]2CCCN2C(=O)[C@H](CC(=O)O)NC(=O)[C@H]([C@@H](C)O)NC(=O)[C@H](Cc2ccc(O)cc2)NC(=O)[C@H](Cc2ccccc2)NC(=O)[C@H](Cc2ccccc2)NC(=O)CNC(=O)[C@H](CCCNC(=N)N)NC(=O)[C@H](CCC(=O)O)NC(=O)CNC(=O)[C@@H]2CSSC[C@@H](C(=O)N[C@@H](CC(N)=O)C(=O)O)NC(=O)[C@H](Cc3ccc(O)cc3)NC(=O)[C@H](CC(N)=O)NC(=O)[C@H](CCC(=O)O)NC(=O)[C@H](CC(C)C)NC(=O)[C@H](CCC(N)=O)NC(=O)[C@H](Cc3ccc(O)cc3)NC(=O)[C@H](CC(C)C)NC(=O)[C@H](CO)NC(=O)[C@@H]3CSSC[C@H](NC(=O)[C@H](CCC(N)=O)NC(=O)[C@H](CCC(=O)O)NC(=O)[C@H](C(C)C)NC1=O)C(=O)N[C@@H](CSSC[C@H](NC(=O)[C@H](CC(C)C)NC(=O)[C@H](Cc1c[nH]cn1)NC(=O)[C@H](CCC(N)=O)NC(=O)[C@H](CC(N)=O)NC(=O)[C@@H](NC(=O)[C@@H](N)Cc1ccccc1)C(C)C)C(=O)NCC(=O)N[C@@H](CO)C(=O)N[C@@H](Cc1c[nH]cn1)C(=O)N[C@@H](CC(C)C)C(=O)N[C@@H](C(C)C)C(=O)N[C@@H](CCC(=O)O)C(=O)N[C@@H](C)C(=O)N[C@@H](CC(C)C)C(=O)N[C@@H](Cc1ccc(O)cc1)C(=O)N[C@@H](CC(C)C)C(=O)N[C@@H](C(C)C)C(=O)N2)C(=O)N[C@@H](Cc1c[nH]cn1)C(=O)N[C@@H](CO)C(=O)N[C@@H]([C@@H](C)CC)C(=O)N3 [[His^A8, Asp^B28, Pro^B29]-SCI]",Kd,[1],27.6 ± 1.18 nM
Lantus ®,IGFR Relative Affinity,[1]; absolute number relative to IGF-1 (=1),0.015
same,IGFR Relative Affinity,[1]; absolute number relative to unmodified human insulin (=1),2-3
same,Kd,[1]; read-out: IGFR Kd,3.14 ± 0.44 nM
insulin-like growth factor II [IGF-II],affinity for either IR isoform relative to human insulin,insulin receptor,< 20%
same,RELATIVE AFFINITY INSULIN RECEPTOR Isoform B,[2],4%
same,selectivity / preference for IR-A relative to IR-B,[3],between fourfold and tenfold; also recorded: greater than twofold preference for IR-A

# Reference: patent US20110195896A1 (CASE WESTERN RESERVE UNIVERSITY, priority 2008, published 2011)
